In patent US12370352B2, “Nasal and ophthalmic delivery of aqueous corticosteroid solutions” (CyDex Pharmaceuticals, Inc., priority 2007, dated 2025):
Where a name gives a salt, the structure may show the parent alone.

Columns and labels:
[1] = Equilibrium binding constants (K) of corticosteroids with SBE6.1-γ-CD (Example 46); settings: (SBE)6.1 γ (0.04 M); in M-1 (unit assumed)
Text: (§1) The binding of a corticosteroid to the SAE-CD can be characterized by its equilibrium binding constant. The higher the binding constant, the more tightly the corticosteroid is bound to the SAE-CD.

[2] = Equilibrium binding constants (K) of corticosteroids with CAPTISOL (Example 46); settings: CAPTISOL (0.04 M); in M-1 (unit assumed)
Text: as §1

[3] = assay type: binding
Text: (§2) The equilibrium binding constant of the corticosteroid can change when a second active agent is present in a composition of the invention. Since azelastine hydrochloride (AZ-HCl) has an approximately 10-fold higher binding constant for SBE-β-CD than does budesonide (BUD), the amount of SBE-β-CD present in an aqueous composition of the three needs to be sufficient to solubilize both drugs. Example 19 details a procedure for determination of the phase solubility of budesonide in the presence of varying amounts of azelastine. The results are depicted in FIGS. 11A (for SBE-β-CD) and 11B (for SBE-β-CD and SBE-γ-CD). […] FIG. 11B is a chart of the phase solubility of BUD as a function of SBE-β-CD or SBE-γ-CD concentration in solution using various different concentrations of AZ-HCl (1.00-2.75 mg.mL). […] Thus, increasing the amount of AZ-HCl in the solution decreases the overall solubility of BUD. […] Therefore, it is advantageous to prepare solution compositions of these combinations using SBE-γ-CD due to the efficiency of interaction so as to require less of one SAExCD versus another different SAEyCD to solubilize similar amounts of actives in the presence of each other.

[4] = assay type: binding; remark: listed apart in the source
Procedure: A composition of the invention can comprise SAE-CD, corticosteroid, aqueous liquid carrier, and an antihistamine. In some embodiments, the composition contains SAE-CD, budesonide, water (or aqueous buffer) and azelastine. Example 14 details the preparation of such a composition. Other solutions of azelastine in buffer with varying amounts of SAE-CD, in the absence of budesonide, were prepared and scanned by UV Spectrometer. The change in absorption as a function of SAE-CD concentration was plotted and used to determine the equilibrium binding constant of azelastine with SAE-CD, according to the Benesi-Hildebrand equation. […] The binding constant for budesonide under similar conditions was determined to be about 1000; therefore, azelastine will compete with budesonide, or another corticosteroid, for binding to SAE-CD. Accordingly, the amount of SAE-CD present can be increased to permit complete dissolution of both drugs.
as §2

[5] = Phase solubility of budesonide in the presence of SAE-CD and azelastine hydrochloride (Example 19); assay type: physicochemical; settings: SBE-β-CD or SBE-γ-CD solutions, pH 4.5 citrate buffer
Text: The equilibrium binding constant of the corticosteroid can change when a second active agent is present in a composition of the invention. Since azelastine hydrochloride (AZ-HCl) has an approximately 10-fold higher binding constant for SBE-β-CD than does budesonide (BUD), the amount of SBE-β-CD present in an aqueous composition of the three needs to be sufficient to solubilize both drugs. Example 19 details a procedure for determination of the phase solubility of budesonide in the presence of varying amounts of azelastine. The results are depicted in FIGS. 11A (for SBE-β-CD) and 11B (for SBE-β-CD and SBE-γ-CD). […] FIG. 11B is a chart of the phase solubility of BUD as a function of SBE-β-CD or SBE-γ-CD concentration in solution using various different concentrations of AZ-HCl (1.00-2.75 mg.mL). […] Thus, increasing the amount of AZ-HCl in the solution decreases the overall solubility of BUD. […]
A stock solution of citrate buffer (3 mM, pH 4.5) was prepared. […] Any budesonide remaining suspended in the solutions was removed by filtration and the concentration of budesonide in each solution measured by HPLC as described herein. […]

[6] = Stability of budesonide R- and S-isomers with and without SBE7-β-CD (Example 13); assay type: physicochemical; settings: pH 4 and 6, all temperatures (60° C., 80° C.)
Procedure: SAE-CD is also capable of stabilizing the isomers of budesonide to different extents. […] At a given temperature the ratio of rate constants with/without SBE7-β-CD was less at pH 6 than at pH 4. Although SBE7-β-CD stabilized both isomers, the S-isomer appears to be stabilized to an even greater extent than the R. At all temperatures and pHs tested, the ratio of rate constants with/without SBE7-β-CD was lower for the S isomer. The degree of stabilization affected by SBE7-β-CD at 60° C. is greater than at 80° C. An even greater degree of stabilization would be expected at 40° C. and/or room temperature (20-30° C.). […] The loss of budesonide was first order and […]. […] To achieve a concentration of budesonide in the buffers without SBE7-β-CD sufficient for accurate measurement, the budesonide was dissolved first in 100% ethyl alcohol. […] All solution preps and procedures involving budesonide were done in a darkened room under red light. […] The final budesonide concentration was about 50 μg/mL. […] Each solution was aliquoted into individual amber vials. They were then placed in ovens at 60° C. and 80° C. Sample vials were removed from the ovens and analyzed by HPLC at 0, 96, 164, and 288 hours. The HPLC assay conditions are summarized below. […]

[7] = Fluticasone propionate concentration in SBE-Gamma ophthalmic solution, excess drug (Example 36 Method A); assay type: physicochemical; settings: 10% w/v SBE-Gamma (D.S.=6.1), 0.01% TWEEN
Procedure: A citrate buffer solution at a pH of 4.5 was prepared by mixing various portions of 0.003M citric acid with 0.003M of trisodium citrate. A phosphate buffer solution at a pH of 6.0 was prepared by mixing various portions of 0.003M monobasic sodium phosphate with 0.003M of dibasic sodium phosphate. […] An excess of fluticasone propionate was added to the vials and equilibrated on a rocker for three days. The samples were then filtered using a PVDF 0.22 μm syringe filter. Aliquots of the solutions were placed into clear glass 2 mL serum vials with aluminum crimp caps and Daikyo Flurotec septums. […] The concentration of the pH 6.0 solution was 238 μg/mL.

[8] = Phase solubility of corticosteroids with cyclodextrins (Example 23)
[9] = Aqueous budesonide/olopatadine/CAPTISOL solution (Example 47); assay type: physicochemical
Procedure: An aqueous budesonide/olopatadine solution was prepared. […] Three mM citrate buffer was prepared at pH 4.5. […] Those citrate solutions were mixed to adjust the pH to 4.5. […] The solutions were transferred into 250 mL amber beakers with a magnetic stir disk. The solutions were mixed with a magnetic stir disk at 900 rpm at a temperature of 35° C. Approximately 34 milligrams of budesonide was suspended in each CAPTISOL solution. The samples were mixed with a magnetic stir disk at 900 rpm and 35° C. After 24 hours, the samples were filtered through 0.22 μm PVDF filter. The budesonide in the aliquots was assayed by an HPLC assay method and the concentrations were 340 μg/mL. […] Approximately 27 milligrams of olopatadine HCl was weighed into each of three 2 drams amber vials. The olopatadine HCl was suspended to 4 mL of budesonide/CAPTISOL solutions prepared in Part A. The samples were mixed on a roller mixer at RT. After 24 hours, the samples were filtered through 0.22 μm PVDF filter. The olopatadine and budesonide in the aliquots was assayed by HPLC assay methods, respectively. All olopatadine HCl concentrations were >6.6 mg/mL and all budesonide concentrations were >320 μg/mL. […] Approximately 27 milligrams of olopatadine HCl were weighed into each of three 2 drams amber vials. The olopatadine HCl was suspended to 4 mL of budesonide/CAPTISOL solutions prepared in Part A. The samples were mixed on a roller mixer at RT. After 1 hour, the pH of each sample was adjusted to 4.5 with 1N NaOH. Again, the samples were mixed on a roller mixer at RT. […] All samples were filtered through 0.22 μm PVDF filter. The olopatadine and budesonide in the aliquots were assayed by HPLC assay methods, respectively.

| SMILES | Binding Constant- K [1] | Binding Constant- K [2] | further results |
| --- | --- | --- | --- |
| CCC(=O)OCC(=O)[C@@]1(OC(=O)CC)[C@@H](C)C[C@H]2[C@@H]3CCC4=CC(=O)C=C[C@]4(C)[C@@]3(Cl)[C@@H](O)C[C@@]21C [Beclomethasone dipropionate, beclomethasone dipropionate] | 2862 | 684 | – |
| CCCC1O[C@@H]2C[C@H]3[C@@H]4CCC5=CC(=O)C=C[C@]5(C)[C@H]4[C@@H](O)C[C@]3(C)[C@]2(C(=O)CO)O1 (stereo partly drawn) [Budesonide, (R,S)-11β, 16α, 17, 21-tetrahydroxypregna-1,4-diene-3, 20-dione cyclic 16, 17-acetal with butyraldehyde] | – | – | Equilibrium complex stability constant with SBE-γ-CD [3]: 2000 M⁻¹; Equilibrium complex stability constant with SBE-β-CD [4]: 1000 M⁻¹; Overall solubility of BUD with increasing amount of AZ-HCl [5]: decreases; With/without CAPTISOL ratio of degradation rate constants [6]: less than 1 |
| C[C@@H]1C[C@H]2[C@@H]3CCC4=CC(=O)C=C[C@]4(C)[C@@]3(Cl)[C@@H](O)C[C@]2(C)[C@@]1(OC(=O)c1ccco1)C(=O)CCl [Mometasone Fuorate] | 551 | 201 | – |
| CC1(C)O[C@@H]2C[C@H]3[C@@H]4CCC5=CC(=O)C=C[C@]5(C)[C@@]4(F)[C@@H](O)C[C@]3(C)[C@]2(C(=O)CO)O1 [Triamcinolone acetonide, triamcinolone acetonide] | – | – | Approximate Molar Ratio at Saturated Solubility of Corticosteroid (SAE-CD:corticosteroid) ([8]; SAE-β-CD): 8.8; Approximate Molar Ratio at Saturated Solubility of Corticosteroid (SAE-CD:corticosteroid) ([8]; SAE-γ-CD): 3.8 |
| CN1CCCC(n2nc(Cc3ccc(Cl)cc3)c3ccccc3c2=O)CC1 (stereo not drawn) [azelastine HCL, azelastine hydrochloride] | – | – | Binding constant for SBE-β-CD relative to budesonide ([4]; AZ-HCl versus BUD): approximately 10 fold |
| CN(C)CC/C=C1/c2ccccc2COc2ccc(CC(=O)O)cc21 [olopatadine HCl] | – | – | Olopatadine HCl concentration ([9]; Part B, all CAPTISOL concentrations (5, 7.5, 10% w/v), pH ~3.8): > 6.6 mg/mL; Olopatadine HCl concentration ([9]; Part C, pH adjusted to 4.5, CAPTISOL 5% w/v (precipitation)): 6.5 mg/mL; Olopatadine HCl concentration ([9]; Part C, pH adjusted to 4.5, CAPTISOL 7.5 and 10% w/v): > 6.6 mg/mL |

The next lines start with results.

| Binding Constant- K [1] | Binding Constant- K [2] | SMILES | further results |
| --- | --- | --- | --- |
| 1104 | 590 | CC1(C)O[C@@H]2C[C@H]3[C@@H]4C[C@H](F)C5=CC(=O)C=C[C@]5(C)[C@H]4[C@@H](O)C[C@]3(C)[C@]2(C(=O)CO)O1 [Flunisolide] | – |
| 3338 | 322 | CCC(=O)O[C@]1(C(=O)SCF)[C@H](C)C[C@H]2[C@@H]3C[C@H](F)C4=CC(=O)C=C[C@]4(C)[C@@]3(F)[C@@H](O)C[C@@]21C [Fluticasone propionate, fluticasone propionate] | Concentration in solution (excess drug, filtered) ([7]; citrate buffer pH 4.5): 232 µg/mL; Concentration in solution (excess drug, filtered) ([7]; phosphate buffer pH 6.0): 238 µg/mL |
| 1430 | 1932 | C[C@]12CCC(=O)C=C1CC[C@@H]1[C@@H]2[C@@H](O)C[C@@]2(C)[C@H]1CC[C@]2(O)C(=O)CO [Hydrocortisone] | – |
| 1653 | 1496 | C[C@]12C=CC(=O)C=C1CC[C@@H]1[C@@H]2[C@@H](O)C[C@@]2(C)[C@H]1CC[C@]2(O)C(=O)CO [Prednisolone] | – |
